Data as given in patent publication US20240409536A1, “COMPOUNDS AND METHODS FOR MODULATING SPLICING” (REMIX THERAPEUTICS INC., priority 2021, published 2024).
Counter-ions that a name gives are not always drawn.

Assays:
Target C mRNA = assay: Gene panel canonical junction qPCR assay, Target C CJ mRNA decrease; format: cell-based; details: Homo sapiens, canonical junction qPCR, read-out: Target C IC50 (decrease in CJ mRNA levels)
Outline: (§1)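 A673 or K562 cells treated with compound; canonical exon-exon junction mRNA quantified by cDNA synthesis and RT-qPCR with junction-spanning primer/probe, normalized to GAPDH, GUSB or PPIA and DMSO (2^(−ΔΔCt)). Percent response from set ΔCt assay windows fitted to 4-parameter logistic; IC50 for CJ decrease.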

HTT mRNA = assay: Gene panel canonical junction qPCR assay, HTT CJ mRNA decrease; format: cell-based, human; details: Homo sapiens, canonical junction qPCR, read-out: HTT IC50 (decrease in CJ mRNA levels)
Outline: as §1

MYB mRNA = assay: Gene panel canonical junction qPCR assay, MYB CJ mRNA decrease; format: cell-based, human; details: Homo sapiens, canonical junction qPCR, read-out: MYB IC50 (decrease in CJ mRNA levels)
Outline: as §1

HiBiT-tagged HTT protein = assay: HiBiT protein abundance assay, HTT (K562 HiBiT knock-in cells); format: cell-based, human; details: 24 hours
Outline: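 Luminescent readout of HiBiT-tagged endogenous protein after lysis, following 24 h compound exposure of knock-in K562 lines at 37 °C. Ten 3-fold concentrations from 10 μM final, DMSO ≤0.25%. Four-parameter logistic fit of normalized response gives concentration halving abundance (IC50).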

| IC50 (Target C mRNA) | IC50 (HTT mRNA) | IC50 (MYB mRNA) | IC50 (HiBiT-tagged HTT protein) | SMILES |
| --- | --- | --- | --- | --- |
| > 10 µM | > 10 µM | > 10 µM | > 10 µM | Cc1cn2cc(NC(=O)c3ccc(N4CCNCC4)c4ccnnc34)cc(C(C)O)c2n1 (stereo not drawn) [Compound 182, N-[8-(1-hydroxyethyl)-2-methylimidazo[1,2-a]pyridin-6-yl]-5-(piperazin-1-yl)cinnoline-8-carboxamide trifluoroacetate] |
| > 10 µM | > 10 µM | 0.1 to 1 µM | 1 to 10 µM | Cc1cn2cc(NC(=O)c3ccc(N4C[C@@H](C)NC5(CC5)C4)c4nccnc34)cc(F)c2n1 [Compound 376] |
| 0.1 to 1 µM | 0.1 to 1 µM | < 0.1 µM | < 0.1 µM | Cc1cnc2c(N3CCC(N(C)C)CC3)ccc(C(=O)Nc3cc(F)c4nc(C)cn4c3)c2n1 [Compound 200, 8-[4-(dimethylamino)piperidin-1-yl]-N-{8-fluoro-2-methylimidazo[1,2-a]pyridin-6-yl}-3-methylquinoxaline-5-carboxamide] |
| 0.1 to 1 µM | 0.1 to 1 µM | 0.1 to 1 µM | 0.1 to 1 µM | COc1cnc2c(N3CCC(N(C)C)CC3)ccc(C(=O)Nc3cc(F)c4nc(C)cn4c3)c2n1 [Compound 206, 8-[4-(dimethylamino)piperidin-1-yl]-N-{8-fluoro-2-methylimidazo[1,2-a]pyridin-6-yl}-3-methoxyquinoxaline-5-carboxamide; trifluoroacetic acid] |
| > 10 µM | 1 to 10 µM | < 0.1 µM | 1 to 10 µM | Cc1cnc2c(C(=O)Nc3cc(F)c4nc(C)cn4c3)ccc(N3CCC(N(C)C)CC3)c2n1 [Compound 208, 8-[4-(dimethylamino)piperidin-1-yl]-N-{8-fluoro-2-methylimidazo[1,2-a]pyridin-6-yl}-2-methylquinoxaline-5-carboxamide; bis(trifluoroacetic acid)] |
| > 10 µM | 1 to 10 µM | 0.1 to 1 µM | 1 to 10 µM | CC[C@H]1CN(c2ccc(C(=O)Nc3cc(F)c4nc(C)cn4c3)c3nnccc23)CCN1 [Compound 152] |
| 1 to 10 µM | 1 to 10 µM | < 0.1 µM | 0.1 to 1 µM | COc1ccc2c(N3CCNCC3)ccc(C(=O)Nc3cc(F)c4nc(C)cn4c3)c2n1 [Compound 169, N-{8-fluoro-2-methylimidazo[1,2-a]pyridin-6-yl}-2-methoxy-5-(piperazin-1-yl)quinoline-8-carboxamide] |
| 1 to 10 µM | 0.1 to 1 µM | 0.1 to 1 µM | 0.1 to 1 µM | Cc1cn2cc(NC(=O)c3ccc(C4CCNCC4)c4nccnc34)cc(F)c2n1 [Compound 371] |
| 1 to 10 µM | 1 to 10 µM | < 0.1 µM | 0.1 to 1 µM | Cc1cn2cc(NC(=O)c3ccc(N4CCNCC4)c4cccnc34)cc(F)c2n1 [Compound 165, N-{8-fluoro-2-methylimidazo[1,2-a]pyridin-6-yl}-5-(piperazin-1-yl)quinoline-8-carboxamide] |
| > 10 µM | > 10 µM | 0.1 to 1 µM | 1 to 10 µM | CN[C@@H]1CCN(c2ccc(C(=O)Nc3cc(F)c4nc(C)cn4c3)c3nccnc23)C1 (single isomer, unassigned) [Compound 193, N-{8-fluoro-2-methylimidazo[1,2-a]pyridin-6-yl}-8-[3-(methylamino)pyrrolidin-1-yl]quinoxaline-5-carboxamide] |
| 1 to 10 µM | 1 to 10 µM | < 0.1 µM | 1 to 10 µM | Cc1cn2cc(NC(=O)c3ccc(N4CCN(C)[C@H](C)C4)c4ccnnc34)cc(F)c2n1 [Compound 149] |

| SMILES | IC50 (Target C mRNA) | IC50 (HTT mRNA) | IC50 (MYB mRNA) | IC50 (HiBiT-tagged HTT protein) |
| --- | --- | --- | --- | --- |
| Cc1cn2cc(NC(=O)c3ccc(N(C)[C@@H]4C[C@H]5CC[C@@H](C4)N5)c4ccnnc34)cc(F)c2n1 [Compound 156] | > 10 µM | > 10 µM | 1 to 10 µM | > 10 µM |
